Data: patent US20140363386A1, “DUALISTIC MOLECULES HAVING UV RADIATION FILTRATING ABILITY AT WIDE SPECTRUM AND POTENT DAMPING ACTIVITY OF THE REACTIVITY OF FREE RADICALS (RADICAL SCAVENGING)” (UNIVERSITA DEGLI STUDI FERRARA, priority 2012, published 2014)

Tests used:
[1] = DPPH test: reducing activity of anti-oxidant molecules against the radical DPPH; assay type: biochemical; conditions: Trolox equivalents
Description: (§1) The compound object of the present invention was tested through different in vitro tests that complement one another, in order to evaluate its ability to counteract different radical species.
(§2) In particular, the DPPH test, based on the measurement of the reducing activity of anti-oxidant molecules against the radical DPPH (2,2-diphenyl-1-picrylhydrazyl), the FRAP (Ferric Reducing/Antioxidant Power) test, which measures the ability of an anti-oxidant to reduce the Fe^3+ ions to Fe^2+ ions in acid conditions and in the presence of TPTZ (2,4,6-tripyridyl-triazine) and PCL (Photochemiluminescence) analysis, which allows measurement of the inhibition by the anti-oxidants of photo-induced auto-oxidation of the luminol promoted by the superoxide anion, were used.
(§3) In table 1, in which the values are expressed in μmol Trolox/mmol compound, some examples are given.

[2] = FRAP (Ferric Reducing/Antioxidant Power) test; assay type: biochemical; conditions: anti-oxidant activity, Trolox equivalents; acid conditions, TPTZ
Description: as §1, §2, §3

[3] = PCL (Photochemiluminescence) analysis of the compounds; assay type: biochemical; conditions: anti-oxidant activity, Trolox equivalents; photo-induced auto-oxidation of luminol
Description: as §1, §2, §3

[4] = maximum wavelength absorbable (λ max), UV absorption; assay type: physicochemical; conditions: for λ max: pH between 7.4 and 8 in a phosphate buffer
Description: Moreover, the compound object of the present invention recorded a significant increase in the maximum wavelength absorbable (λ max) with respect to 2-phenyl-1H-benzimidazole-5-sulfonic acid, which has been taken as reference.
Some examples are given in table 2, in which the λ max were measured at pH comprised between 7.4 and 8 in a phosphate buffer.
In 5 ml of ethanol 100 mg of 3,4-diamine-benzenesulfonic acid sulfate salt (0.35 mmol), 48 mg of 3,4 dihydroxybenzaldehyde (0.35 mmol) and 0.7 ml of sodium bisulfite solution 1N (0.7 mmol) were mixed. The reaction mixture was placed at 80° C. for 24 hours. After having evaporated the solvents, the raw product was treated with 5 ml of solution 5M of HCl. The precipitate was then filtered and the product recrystallized from methanol.

[5] = in vitro spectrophotometric determination of solar protection parameters of standard formulations (Diffey and Robson); conditions: standard formulation containing the compound at 3%
Source text: Determining the UVA/UVB ratio is a parameter that is mostly independent from the SPF value that provides a clear indication of the protective power of the solar product against UVA rays. According to the Boots scale, when the value of such a ratio is comprised between 0.6 and 0.8 the product offers a high UVA protection, when the value is greater than 0.8 the UVA protection is considered to be its maximum.
The critical λ is an important instrumental parameter for evaluating the protective power of the solar product against UVA rays: when the critical λ is greater than 370 nm the product offers protection over a wide spectrum.
Determining the solar protection parameters was carried out through in vitro tests that foresee the use of spectrophotometric techniques, according to the international protocol Diffey and Robson (B. L. Diffey, J. Robson, J. Soc. Cosm. Chem., 1989, 40: 127-133).
As well as 2-phenyl-1H-benzimidazole-5-sulfonic acid, as reference product with which to compare the data a commercial filter (Neo Heliopan® AP) was also used, known to be a water-soluble exclusively UVA filter with critical λ greater than 370 nm. The results of some standard formulations containing a compound according to the present invention are given as an example in table 3.
(§4) Standard Formulation 3% Prepared at pH 7.2-7.6

[6] = PCL analysis of anti-oxidant activity of standard formulations; assay type: biochemical; conditions: standard formulation containing the compound at 3%
Source text: as §2
We then proceeded to measure the anti-oxidant activity through PCL analysis of the standard formulations containing a compound according to the present invention at the concentration of 3%. Such an anti-oxidant activity was measured in order to compare it with the reference molecules.
as §4

[7] = known property of the commercial filter; cited from earlier work

Structure (SMILES) | DPPH [1] [μmol Trolox/mmol compound] | FRAP [2] [μmol Trolox/mmol compound] | PCL [3] [μmol Trolox/mmol compound] | λ max [4] [nm] | SPF [5] | UVA/UVB (ratio between UVA absorbance and UVB absorbance) [5] | λ critical [5] [nm] | anti-oxidant activity through PCL analysis [6] | maximum absorption in the UV region ([4]; product of Example 1, medium not stated) [nm] | critical λ [7]
Oc1ccc(-c2nc3ccccc3[nH]2)c(O)c1 [2-(2,4-Dihydroxy-phenyl)-1H-benzimidazole] | 16.5 ± 0.5 | 37.3 ± 0.3 | 198 ± 3 | 315.5 | 4.85 ± 0.71 | 1.31 ± 0.04 | 379.5 | 8.66 ± 0.04 μmol Trolox/g cosmetic formulation |  | 
O=C(O)c1ccc2[nH]c(-c3ccc(O)cc3O)nc2c1 [2-(2,4-Dihydroxy-phenyl)-1H-benzoimidazole-5-carboxylic acid] | 32.2 ± 2.1 | 31.6 ± 1.7 | 160 ± 4 | 321.5 | 4.70 ± 0.62 | 1.48 ± 0.03 | 369.5 | 4.97 ± 0.17 μmol Trolox/g cosmetic formulation |  | 
Oc1ccc(-c2nc3ccccc3[nH]2)cc1O [2-(3,4-Dihydroxy-phenyl)-1H-benzimidazole] | 1975 ± 15 | 2523 ± 29 | 27442 ± 329 | 311 | 7.07 ± 1.36 | 0.93 ± 0.02 | 367.5 | 760 ± 5 μmol Trolox/g cosmetic formulation |  | 
O=C(O)c1ccc2[nH]c(-c3ccc(O)c(O)c3)nc2c1 [2-(3,4-Dihydroxy-phenyl)-1H-benzoimidazole-5-carboxylic acid] | 1772 ± 75 | 1803 ± 22 | 22014 ± 360 | 317 | 9.82 ± 1.30 | 1.21 ± 0.04 | 369.5 | 383 ± 18 μmol Trolox/g cosmetic formulation |  | 
O=S(=O)(O)c1ccc2[nH]c(-c3ccc(O)c(O)c3)nc2c1 [2-(3,4-dihydroxy-phenyl)-1H-benzoimidazole-5-sulfonic acid] | 2145 ± 40 | 2313 ± 26 | 27855 ± 764 | 313.5 | 13.36 ± 2.20 | 0.88 ± 0.04 | 358.5 | 725 ± 3 μmol Trolox/g cosmetic formulation | 313 | 
O=C(O)c1ccc2[nH]c(-c3ccc(O)cc3)nc2c1 [2-(4-Hydroxy-phenyl)-1H-benzoimidazole-5-carboxylic acid] | 1.19 ± 0.02 | 2.62 ± 0.06 | 7 ± 0.3 | 312.5 | 8.42 ± 1.55 | 0.89 ± 0.05 | 350 | 0.16 ± 0.02 μmol Trolox/g cosmetic formulation |  | 
O=S(=O)(O)c1ccc2[nH]c(-c3ccccc3)nc2c1 [2-phenyl-1H-benzimidazole-5-sulfonic acid, reference compound] | 4.40 ± 0.03 | 0.79 ± 0.05 | <0 | 302.5 | 6.33 ± 1.24 | 0.31 ± 0.06 | 333 | 0 μmol Trolox/g cosmetic formulation |  | 
O=S(=O)([O-])c1cc(S(=O)(=O)O)cc2[nH]c(-c3ccc(-c4nc5c(S(=O)(=O)[O-])cc(S(=O)(=O)O)cc5[nH]4)cc3)nc12.[Na+].[Na+] [Neo Heliopan ® AP, reference compound] |  |  |  |  | 4.59 ± 0.37 | 2.46 ± 0.12 | 371 | 0 μmol Trolox/g cosmetic formulation |  | greater than 370 nm
